Reference: US20220015365A1, “SYNERGISTIC HERBICIDE COMPOSITION OF BROAD-SPECTRUM FOR THE CONTROL OF WEEDS IN AGRICULTURAL CULTURES, USE OF SUCH COMPOSITION FOR PREPARATION OF PRODUCT, PRODUCT AND METHOD OF APPLICATION” (priority 2018, published 2022)

Key:
[1] = tested on: Brachiaria decumbens; test: Pre-emergence weed control in soil prepared with weed seeds, synergy by Colby equation; type: in vivo; conditions: 35 days after application
Description: (§1) Protocol: in soil prepared with weed seeds (without germination), the composition of the present invention was applied. This test was performed for two species of weeds: Brachiaria decumbens and Panicum maximum. Data were collected 35 days after application of the composition to the soil and calculated. […] Colby equation: to use Colby's approach to evaluate synergy or antagonism in combinations, the components of the combination should be tested individually in their concentration of components in the same study as the combination. The results observed for the combination are compared with the expected results of the Colby Equation (Colby, 1967). Note that this equation is derived from the definition of the probability of independence. […] […].2. Criteria of the analysis: • If the value observed is higher than expected (Obs>E): synergy; • If the value observed is lower than expected (Obs<E): antagonism.

[2] = tested on: Panicum maximum; test: as above; type: in vivo; conditions: 35 days after application
Description: as §1

CC(C)c1nn(C(=O)NC(C)(C)C)c(=O)n1N [Amicarbazone, 4-Amino-N-(tert-butyl)-3-isopropyl-5-oxo-4,5-dihydro-1H-1,2,4-triazole-1-carboxamide]
Control % BRADC Observed ([1]; Amicarbazone 238.00 g ai/ha): 52.50% | Control % BRADC Observed ([1]; Amicarbazone 442.00 g ai/ha): 66.25% | Control % BRADC Observed ([1]; Amicarbazone 515.60 g ai/ha): 62.50% | Control % BRADC Observed ([1]; Amicarbazone 571.15 g ai/ha): 77.50% | Control % PANMA Observed ([2]; Amicarbazone 238.00 g ai/ha): 83.25% | Control % PANMA Observed ([2]; Amicarbazone 317.30 g ai/ha): 75.00% | Control % PANMA Observed ([2]; Amicarbazone 442.00 g ai/ha): 0.00% | Control % PANMA Observed ([2]; Amicarbazone 515.60 g ai/ha): 90.00% | Control % PANMA Observed ([2]; Amicarbazone 571.15 g ai/ha): 91.25% | Control % PANMA Observed ([2]; Amicarbazone 589.30 g ai/ha): 90.00% | Control % PANMA Observed ([2]; Amicarbazone 594.00 g ai/ha): 86.25% | Control % PANMA Observed ([2]; Amicarbazone 687.50 g ai/ha): 95.00% | Control % PANMA Observed ([2]; Amicarbazone 761.54 g ai/ha): 98.25% | Control % PANMA Observed ([2]; Amicarbazone 792.00 g ai/ha): 88.75%

C#CCN1C(=O)COc2cc(F)c(N3C(=O)C4=C(CCCC4)C3=O)cc21 [Flumioxazin, N-(7-Fluor-3,4-dihydro-3-oxo-4-prop-2-inyl-2H-1,4-benzoxazin-6-yl)cyclohex-1-en-1,2-dicarboximide]
Control % BRADC Observed ([1]; Flumioxazin 47.60 g ai/ha): 81.25% | Control % BRADC Observed ([1]; Flumioxazin 103.10 g ai/ha): 83.75% | Control % BRADC Observed ([1]; Flumioxazin 176.80 g ai/ha): 92.75% | Control % BRADC Observed ([1]; Flumioxazin 380.00 g ai/ha): 90.00% | Control % PANMA Observed ([2]; Flumioxazin 24.75 g ai/ha): 81.25% | Control % PANMA Observed ([2]; Flumioxazin 33.00 g ai/ha): 88.75% | Control % PANMA Observed ([2]; Flumioxazin 47.60 g ai/ha): 89.50% | Control % PANMA Observed ([2]; Flumioxazin 63.46 g ai/ha): 97.00% | Control % PANMA Observed ([2]; Flumioxazin 103.10 g ai/ha): 98.75% | Control % PANMA Observed ([2]; Flumioxazin 137.50 g ai/ha): 97.50% | Control % PANMA Observed ([2]; Flumioxazin 176.80 g ai/ha): 97.55% | Control % PANMA Observed ([2]; Flumioxazin 235.70 g ai/ha): 99.00% | Control % PANMA Observed ([2]; Flumioxazin 380.00 g ai/ha): 97.50% | Control % PANMA Observed ([2]; Flumioxazin 507.70 g ai/ha): 98.75%
